In article PMC6114103, “17-DMAG inhibits the multiplication of several Babesia species and Theileria equi on in vitro cultures, and Babesia microti in mice” (International Journal for Parasitology: Drugs and Drug …, 2018):

Tests used:
B. caballi (USDA strain) = test: in vitro multiplication inhibition assay (SYBR Green I fluorescence, 96 h), single drugs and two-drug combinations; format: cell-based, Babesia caballi; details: for IC50: Babesia caballi, B. caballi, 96 h, triplicate, mean ± SD, read-out: IC50 on in vitro culture of parasites; for Selectivity index MDBK: ratio IC50 MDBK to IC50 B. caballi; for Selectivity index NIH/3T3: ratio IC50 NIH/3T3 to IC50 B. caballi
Experimental: (§1) Babesia parasite cultures were maintained using a microaerophilic stationary-phase culture system ([Levy and Ristic, 1980]; [Avarzed et al., 1997]; [Igarashi et al., 1998]). Briefly, bovine Babesia parasites were grown in bovine red blood cells (RBC) in the specific complete medium for each species. The medium for B. bovis (Texas strain) contained GIT medium supplemented with 10% bovine serum, while the medium for B. bigemina (Argentina strain) and B. divergens (Germany strain) was Medium 199 and RPMI 1640 medium, respectively, supplemented with 40% bovine serum ([Rizk et al., 2016]). B. caballi (USDA strain) was grown using equine RBC in GIT medium supplemented with 10% equine serum. T. equi (USDA strain) was grown in equine RBC in M199 medium supplemented with 40% equine serum and hypoxanthine (MP Biomedicals, USA) at a final concentration of 13.6 μg/ml. All of the media included 60 U/ml penicillin G, 60 μg/ml streptomycin, and 0.15 μg/ml amphotericin B (Sigma-Aldrich, USA). The cultures were incubated at 37 °C in a humidified chamber with an atmosphere of 5% CO2, 5% O2, and 90% N2.
(§2) The assays were conducted in accordance with the protocol described previously with modification ([Guswanto et al., 2014]). Briefly, the cultures of B. bovis, B. bigemina, B. divergens, B. caballi, and T. equi with a parasitemia of 8%, 3%, 10%, 4%, and 9%, respectively, were harvested and adjusted to 1% parasitemia with fresh RBC before the inhibition assay. The 60 inner wells of a 96-well plate were used in the assay, while the peripheral wells were filled with sterile distillate water to reduce evaporation during incubation. To each well in triplicate, 2.5 μl of infected RBC (5 μl for B. divergens, B. caballi, and T. equi) was added and mixed with a culture medium containing the drug to a total volume of 100 μl. The stock solution of 17-DMAG, DA, and AV was dissolved in a culture medium at various concentrations using two-fold dilution. A culture medium containing DMSO at a final concentration of 0.2% was added to the well with infected RBC as a positive control and to the well with uninfected RBC as a negative control. Furthermore, a drug combination assay was conducted in parallel with the single drug assay at the constant ratio in accordance with the Chou–Talalay method ([Chou, 2006]). In the same plate with a single drug inhibition assay, a two-drug combination (DA+17-DMAG, DA + AV, and 17-DMAG + AV) at concentrations of 0.25 x IC50, 0.5 x IC50, IC50, 2 x IC50, and 4 x IC50 was added to the well containing infected RBC in triplicate. The plate was incubated in a humidified incubator with 5% CO2, 5% O2, and 90% N2. After 96 h, 100 μl of a lysis buffer containing SYBR Green I was added to each well. The plate was wrapped with aluminum foil to avoid direct light exposure and incubated at room temperature. After incubation for 6 h, fluorescence values were measured using a fluorescence spectrophotometer (Fluoroskan Ascent, Thermo Fisher Scientific, USA) with the excitation and emission wavelength at 485 nm and 518 nm, respectively. The fluorescence data were subtracted from the negative control and used to calculate the IC50.
(§3) The IC50 of 17-DMAG, DA, and AV was calculated from the percentage of inhibition on the in vitro multiplication of all tested species using non-linear regression (curve fit), available in GraphPad Prism (GraphPad Software Inc., USA). Combination index (CI) values for the drug combination were calculated using CompuSyn software ([Chou, 2006]). Since the chemotherapy effect is preferable at the highest inhibition, the degree of synergism was determined as the weighted average of CI values using a formula ((1 x IC50) + (2 x IC75) + (3 x IC90) + (4 x IC95))/10 ([Chou, 2006]). The differences among groups regarding the parasitemia, hematology profiles, and body weight in the B. microti–infected mouse model were analyzed using Student's t-test, available in GraphPad Prism software.

[1] = test system: B. bigemina (Argentina strain); test: as above; format: cell-based, Babesia bigemina; details: for IC50: Babesia bigemina, B. bigemina, 96 h, triplicate, mean ± SD, read-out: IC50 on in vitro culture of parasites; for Selectivity index MDBK: ratio IC50 MDBK to IC50 B. bigemina; for Selectivity index NIH/3T3: ratio IC50 NIH/3T3 to IC50 B. bigemina
Experimental: as §1, §2, §3

[2] = test system: B. divergens (Germany strain); test: as above; format: cell-based, Babesia divergens; details: for IC50: Babesia divergens, B. divergens, 96 h, triplicate, mean ± SD, read-out: IC50 on in vitro culture of parasites; for Selectivity index MDBK: ratio IC50 MDBK to IC50 B. divergens; for Selectivity index NIH/3T3: ratio IC50 NIH/3T3 to IC50 B. divergens
Experimental: as §1, §2, §3

NIH/3T3 cells = test: cytotoxicity (drug-exposure viability) assay, CCK-8; format: cell-based, mouse; details: for IC50: Mus musculus, NIH3T3, NIH/3T3, 24 h exposure, CCK-8, read-out: IC50 on cell line NIH/3T3
Experimental: Each medium was supplemented with 10% fetal bovine serum, 0.5% penicillin/streptomycin (Gibco, Life Technologies, USA), and an additional 1% glutamine. The medium was changed every 3–4 days and incubated until approximately 80% confluent. The cells were free from mycoplasma contamination after being checked by staining with DAPI (Sigma-Aldrich, USA). The detachment of cells from the culture flask was done using TrypLE™ Express (Gibco, Life Technologies, USA) after washing two times with Dulbecco's phosphate-buffered saline (DPBS). Subsequently, the counting of viable cells was carried out using a Neubauer improved C-Chip (NanoEntek Inc., Korea) after staining with 0.4% trypan blue solution. The drug-exposure viability assay was performed in accordance with the recommendation of the Cell Counting Kit-8 (CCK-8, Dojindo, Japan). Briefly, the assay was carried out using a 96-well plate at 37 °C in a humidified incubator with 5% CO2. One hundred microliters of cells at a density of 5 × 10^4 cells/ml was seeded per well and allowed to attach to the plate for 24 h. […] The exposure of drugs was carried out for 24 h, followed by the addition of 10 μl of CCK-8. The plate was further incubated for 3 h, and the absorbance was measured at 450 nm using a microplate reader.

Compound | IC50 (B. caballi (USDA strain)) | Selectivity index MDBK (B. caballi (USDA strain)) | Selectivity index NIH/3T3 (B. caballi (USDA strain)) | IC50 [1] | Selectivity index MDBK [1] | Selectivity index NIH/3T3 [1] | IC50 [2] | Selectivity index MDBK [2] | Selectivity index NIH/3T3 [2] | IC50 (NIH/3T3 cells) | inhibition on NIH/3T3 cell viability (NIH/3T3 cells; at a concentration of 40 μM, separate assay)
CO[C@H]1/C=C\C=C(/C)C(=O)NC2=CC(=O)C(NCCN(C)C)=C(C[C@@H](C)C[C@H](OC)[C@H](O)[C@@H](C)/C=C(\C)[C@@H]1OC(N)=O)C2=O [17-DMAG, 17-dimethylaminoethylamino-17-demethoxygeldanamycin] | 88.5 ± 9.6 nM | 99 | 175 | 62.4 ± 1.9 nM | 141 | 248 | 184 ± 3.2 nM | 48 | 84 | 15.5 ± 4 µM | –
O=C1C(O)=C([C@H]2CC[C@H](c3ccc(Cl)cc3)CC2)C(=O)c2ccccc21 [AV, atovaquone] | 102 ± 14.1 nM | >393 | >393 | 706 ± 38.7 nM | >57 | >57 | 13.4 ± 1.4 nM | >2985 | >2985 | > 40 µM | did not show any inhibition
